In brackets after ≈: the same amount, converted by molar mass. Where a SMILES comes first, the peptide text is derived from it. Bridges are numbered along the chain shown (N, C = ends). [ ]: non-standard residue; d: D form. The star is where a group is joined. Phe(F5) = N[C@@H](Cc1c(F)c(F)c(F)c(F)c1F)C(=O)O; Phe(3,5-F2) = N[C@@H](Cc1cc(F)cc(F)c1)C(=O)O; Pip(4S-Me) = C[C@H]1CCN[C@H](C(=O)O)C1; Pro(4R-Me) = C[C@H]1CN[C@H](C(=O)O)C1; Tiq1c(1S) = O=C(O)[C@H]1NCCc2ccccc21; Heptenoyl(2E) = CCCC/C=C/C(=O)*; aThr = C[C@H](O)[C@H](N)C(=O)O; Pip = O=C(O)[C@@H]1CCCCN1; NMeA = CN[C@@H](C)C(=O)O; X1 = CCC/C=C/C=C/C(=O)*; Abu = CC[C@H](N)C(=O)O
Tests used:
Format in all cases: functional
Neisseria meningitidis [1] = experiment: Antibacterial activity against Neisseria meningitidis H44/76 incubated for 16 to 18 hrs by broth microdilution method
Neisseria gonorrhoeae = experiment: Antibacterial activity against chloramphenicol-resistant Neisseria gonorrhoeae N.279 incubated for 16 to 18 hrs by broth microdilution method
Escherichia coli [2] = experiment: Antibacterial activity against Escherichia coli MC4100 incubated for 16 to 18 hrs by broth microdilution method
Escherichia coli [3] = experiment: Antibacterial activity against Escherichia coli MC4100 expressing lptD-4213 incubated for 16 to 18 hrs by broth microdilution method
Pseudomonas aeruginosa = experiment: Antibacterial activity against Pseudomonas aeruginosa PAO1 incubated for 16 to 18 hrs by broth microdilution method
Staphylococcus aureus [4] = experiment: Antibacterial activity against methicillin-resistant Staphylococcus aureus 1784A incubated for 16 to 18 hrs by broth microdilution method
Staphylococcus aureus [5] = experiment: Antibacterial activity against Staphylococcus aureus subsp. aureus Newman clinical isolate incubated for 16 to 18 hrs by broth microdilution method
Staphylococcus aureus [6] = experiment: Antibacterial activity against Staphylococcus aureus ATCC 29213 incubated for 16 to 18 hrs by broth microdilution method
Enterococcus faecalis = experiment: Antibacterial activity against vancomycin-resistant Enterococcus faecalis V583 incubated for 16 to 18 hrs by broth microdilution method
Streptococcus pneumoniae = experiment: Antibacterial activity against Streptococcus pneumoniae D39 incubated for 16 to 18 hrs by broth microdilution method
Bacillus subtilis = experiment: Antibacterial activity against Bacillus subtilis PY79 incubated for 16 to 18 hrs by broth microdilution method
Listeria innocua = experiment: Antibacterial activity against Listeria innocua incubated for 16 to 18 hrs by broth microdilution method
Neisseria meningitidis [7] = experiment: Antibacterial activity against clpP deficient Neisseria meningitidis H44/76 incubated for 16 to 18 hrs by broth microdilution method

| SMILES | MIC (Neisseria meningitidis [1]) [µg/mL] | MIC (Neisseria gonorrhoeae) [µg/mL] | MIC (Escherichia coli [2]) [µg/mL] | MIC (Escherichia coli [3]) [µg/mL] | MIC (Pseudomonas aeruginosa) [µg/mL] | MIC (Staphylococcus aureus [4]) [µg/mL] | MIC (Staphylococcus aureus [5]) [µg/mL] | MIC (Staphylococcus aureus [6]) [µg/mL] | MIC (Enterococcus faecalis) [µg/mL] | MIC (Streptococcus pneumoniae) [µg/mL] | MIC (Bacillus subtilis) [µg/mL] | MIC (Listeria innocua) [µg/mL] | MIC (Neisseria meningitidis [7]) [µg/mL] |
| --- | --- | --- | --- | --- | --- | --- | --- | --- | --- | --- | --- | --- | --- |
| CCCC/C=C/C(=O)N[C@@H](Cc1cc(F)cc(F)c1)C(=O)N[C@@H]1C(=O)N2CCC[C@H]2C(=O)N2CC[C@H](C)C[C@H]2C(=O)N[C@@H](C)C(=O)N2CCC[C@H]2C(=O)O[C@H]1C ({Heptenoyl(2E)}-[Phe(3,5-F2)][aThr]P[Pip(4S-Me)]AP; ester 2-C) | 0.125 (≈ 0.159 µM) | 0.125 (≈ 0.159 µM) | > 128 | > 128 | > 128 | 1 (≈ 1.27 µM) | 0.5 (≈ 0.637 µM) | 0.0078 (≈ 0.00994 µM) | 0.0156 (≈ 0.0199 µM) | ≤ 0.0625 | ≤ 0.0625 | ≤ 0.0625 | – |
| CCCC/C=C/C(=O)N[C@@H](Cc1cc(F)cc(F)c1)C(=O)N[C@@H]1C(=O)N2CCC[C@H]2C(=O)N2CCCC[C@H]2C(=O)N[C@@H](C)C(=O)N2C[C@H](C)C[C@H]2C(=O)O[C@H]1C | 0.0625 (≈ 0.0796 µM) | 0.0625 (≈ 0.0796 µM) | > 128 | > 128 | > 128 | 0.125 (≈ 0.159 µM) | 0.0625 (≈ 0.0796 µM) | 0.0039 (≈ 0.00497 µM) | 0.0078 (≈ 0.00994 µM) | ≤ 0.0625 | ≤ 0.0625 | ≤ 0.0625 | > 128 |
| C[C@@H]1C[C@H]2C(=O)O[C@@H](C)[C@H](NC(=O)[C@H](Cc3cc(F)cc(F)c3)NC(=O)/C=C/CCCCC(=O)O)C(=O)N3CCC[C@H]3C(=O)N3CCCC[C@H]3C(=O)N[C@@H](C)C(=O)N2C1 | 4 (≈ 4.83 µM) | 1 (≈ 1.21 µM) | > 128 | > 128 | > 128 | 64 (≈ 77.2 µM) | 64 (≈ 77.2 µM) | 32 (≈ 38.6 µM) | 8 (≈ 9.65 µM) | 0.125 (≈ 0.151 µM) | 16 (≈ 19.3 µM) | 0.5 (≈ 0.603 µM) | – |
| CCC/C=C/C=C/C(=O)N[C@@H](Cc1ccccc1)C(=O)N[C@H]1COC(=O)[C@@H]2C[C@@H](C)CN2C(=O)[C@H](C)NC(=O)[C@H](C)N(C)C(=O)[C@@H]2CCCN2C1=O (X1-FSP[NMeA]A[Pro(4R-Me)]; ester 2-C) | 0.0313 (≈ 0.0434 µM) | 0.0156 (≈ 0.0216 µM) | > 128 | > 128 | > 128 | 0.5 (≈ 0.694 µM) | 0.25 (≈ 0.347 µM) | 0.5 (≈ 0.694 µM) | 0.125 (≈ 0.173 µM) | ≤ 0.0625 | 0.125 (≈ 0.173 µM) | ≤ 0.0625 | > 128 |
| C[C@@H]1C[C@H]2C(=O)O[C@@H](C)[C@H](NC(=O)[C@H](Cc3cc(F)cc(F)c3)NC(=O)/C=C/CC3CCCCC3)C(=O)N3CCC[C@H]3C(=O)N3CCCC[C@H]3C(=O)N[C@@H](C)C(=O)N2C1 | 0.0625 (≈ 0.0758 µM) | 0.125 (≈ 0.152 µM) | > 128 | > 128 | > 128 | 0.125 (≈ 0.152 µM) | 0.0625 (≈ 0.0758 µM) | 0.0078 (≈ 0.00945 µM) | 0.0078 (≈ 0.00945 µM) | 0.0625 (≈ 0.0758 µM) | ≤ 0.0625 | ≤ 0.0625 | > 128 |
| CCCC/C=C/C(=O)N[C@@H](Cc1cc(F)cc(F)c1)C(=O)N[C@H]1COC(=O)[C@@H]2C[C@@H](C)CN2C(=O)[C@H](CC)NC(=O)[C@@H]2c3ccccc3CCN2C(=O)[C@@H]2CCCN2C1=O ({Heptenoyl(2E)}-[Phe(3,5-F2)]SP[Tiq1c(1S)][Abu][Pro(4R-Me)]; ester 2-C) | 8 (≈ 9.6 µM) | 8 (≈ 9.6 µM) | > 128 | > 128 | > 128 | 4 (≈ 4.8 µM) | 8 (≈ 9.6 µM) | 4 (≈ 4.8 µM) | 0.25 (≈ 0.3 µM) | 0.5 (≈ 0.6 µM) | 2 (≈ 2.4 µM) | 0.125 (≈ 0.15 µM) | – |
| CCCC/C=C/C(=O)N[C@@H](Cc1cc(F)cc(F)c1)C(=O)N[C@H]1COC(=O)[C@@H]2C[C@@H](C)CN2C(=O)[C@H](C)NC(=O)[C@@H]2C[C@@H](C)CCN2C(=O)[C@@H]2CCCN2C1=O ({Heptenoyl(2E)}-[Phe(3,5-F2)]SP[Pip(4S-Me)]A[Pro(4R-Me)]; ester 2-C) | 0.125 (≈ 0.159 µM) | 0.0625 (≈ 0.0796 µM) | > 128 | > 128 | > 128 | 4 (≈ 5.1 µM) | 0.5 (≈ 0.637 µM) | 0.0156 (≈ 0.0199 µM) | 0.0156 (≈ 0.0199 µM) | ≤ 0.0625 | ≤ 0.0625 | ≤ 0.0625 | – |
| CCCC/C=C/C(=O)N[C@@H](Cc1c(F)c(F)c(F)c(F)c1F)C(=O)N[C@H]1COC(=O)[C@@H]2C[C@@H](C)CN2C(=O)[C@H](CC)NC(=O)[C@@H]2CCCCN2C(=O)[C@@H]2CCCN2C1=O ({Heptenoyl(2E)}-[Phe(F5)]SP[Pip][Abu][Pro(4R-Me)]; ester 2-C) | 32 (≈ 38.1 µM) | 32 (≈ 38.1 µM) | > 128 | > 128 | > 128 | > 128 | > 128 | > 128 | 16 (≈ 19.1 µM) | > 128 | 128 (≈ 153 µM) | 4 (≈ 4.77 µM) | – |
